From patent publication US6673555B1, “Methods of using SCAP antagonists” (SmithKline Beecham Corporation, priority 1999, dated 2004)

Experiments:
[1] = system: human SREBP-2; experiment: Western blot analysis of the proteolytic maturation of SREBP-2 in HepG2 cells; type: cell-based; details: 1 μM, 18 hours
Method: The involvement of the SREBP pathway was confirmed by Western Blot immunodetection of precursor and mature forms of human SREBP-2.
HepG2 cells were seeded in 150 cm^2 flasks at 8×10^6 cells and transfected with 10 μg of pTK-HSV-BP2 using Fugene 6 and incubated for 20 h before addition of 1 μM of example 1 or vehicle. After 18 h of incubation, membrane fraction and nuclear extracts were obtained using the method described by Hua, X. et al., J. Biol. Chem. 270: 29422-27 (1995).
Proteins (20 μg/load) were separated on 8% SDS-PAGE and blotted onto BA 83 nitrocellulose membrane (Schleisher & Schuell). The HSV tag present in the amino terminus of SREBP-2 was detected using 0.2 μg/ml of anti-HSV antibodies after saturation with 10% non-fat milk.
HepG2 cells were transfected (FIG. 4, lane b-e) or not transfected (FIG. 4, lane a) with pTK-HSV-BP2 vector encoding human SREBP-2 preceded by HSV tag. Cells were treated for 18 hours with Example 1 (1 μM) (lane c, d) or vehicle (lane a, b, e) and nuclear extract (lane d, e) and membrane (lane a-c) were isolated and analysed by western blotting using anti-HSV antibodies.

[2] = system: human LDL-receptor promoter; experiment: LDL-receptor promoter luciferase reporter assay in transfected HepG2 cells; type: cell-based
Excerpt: The human LDL-receptor promoter named p-588 corresponding to nucleotide −588 to +91 relative to the major transcription site was cloned by PCR from human genomic DNA (Clonetech) using SEQ ID NO: 3 […] and SEQ ID NO: 4 […] primers. and inserted into pGL3-basic vector (Promega) at Hind-III and Nco-I sites. The sequencing was identical to published promoter (Genbank L29401). Shorter promoters were obtained by PCR sub-cloning using Kpn-I and Nar-I sites. The primer SEQ ID NO: 5 […] corresponding to luciferase coding sequence was used as reverse primer for all constructs. The following primers were used to produce respectively p-149, p-118, p-70, p-53 and p-31 promoters: SEQ ID NO: 6 […], SEQ ID NO: 7 […], SEQ ID NO: 8 […], SEQ ID NO: 9 […] and SEQ ID NO: 10 […]. A vector containing the 38 bp of the minimal promoter of adenovirus Major Late Promoter (Ham. J. et al., EMBO, 10: 2931-2940 (1991)) was produced using Bgl-II and Hind-III site in pGL3-basic. Four repeats of the SRE sequence present on the human LDL-receptor promoter were introduced in p-MLP vector using Bgl-II site, SEQ ID NO: 11 […] and complementary oligo. HepG2 cells seeded the previous day at 3 10^5 cells per well of 24 well plate were transfected with 1 μg of LDL-promoter containing vector together with p-RL-TK control vector (Promega) using Fugene 6 (Boehringer). HepG2 cells were incubated for 28 hours in the presence of SCAP antagonist and/or 25OH-cholesterol. Firefly luciferase and Renila activity were measured using Dual Luciferase Assay Kit (Promega) and Lumistar (BMG). The ratio of Firefly luciferase to Renila were used to calculate mean and S.D. of tetraplicates.
A vector containing the human LDL-receptor promoter coupled to Firefly luciferase reporter was made. A mixture of the LDL-receptor vector and control pRL-TK vector was used to transfect HepG2 cells. Cells were incubated with 25OH-cholesterol (0.2 or 1 μM) alone or in the presence (black bars) or absence (gray bars) of Example 1 (1 μM) for 28 hours before measurement of luciferase and renila activity. The ratio of luciferase activity versus renila activity was calculated and the mean and SD of triplicates were expressed as percent of control.
Shortening the LDL-receptor promoter in the same reporter vector modifies the relative luciferase activity (FIG. 3A).

[3] = system: golden Syrian hamster previously fed with a cholesterol rich diet; experiment: Lipoprotein cholesterol profile by gel filtration in cholesterol-fed hamsters (FIG. 7); type: in vivo; details: 5 mg/kg oral once a day for 3 days
Method: The in vivo activity of SCAP antagonist was determined in the golden Syrian hamster previously fed with a cholesterol rich diet. Male Syrian golden hamsters (Janvier, France) were kept on a 12 h light-dark cycle. Animals (7 weeks age, 150 g) were fed for 2 weeks with a high cholesterol diet containing 0.2% cholesterol plus 10% coconut oil. Animals (n=5 per group) were then treated orally with vehicle, (0.5% methylcellulose, 5% Tween 80) or Example 1 at 1, 5 or 20 mg/kg in the vehicle, once a day for 3 days.
4h after the last treatment, animals were anesthetized, blood was collected and serum was prepared by centrifugation. Total cholesterol was determined using a enzymatic assay kit (Biomerieux, France). Lipoproteins were separated by ultracentrifugation using a single KBr concentration (density 1.063). Cholesterol and triglycerides associated with the upper phase (corresponding to VLDL +LDL lipoproteins) and cholesterol associated with the lower phase (corresponding to the HDL fraction) were determined using the enzymatic assays kits. Apolipoprotein B100 associated with VLDL and LDL lipoprotein fraction were analysed by SDS-PAGE and Coomassie blue staining. Lipoproteins were also separated by high-performance gel filtration chromatography with on-line colorimetric determination of cholesterol. Lipoprotein separation was performed on a single superose 6HR column (Pharmacia) with an elution buffer consisting of 10 mM tris, 1 mM EDTA and 150 mM NaCl adjusted at pH 7.4. Cholesterol was measured on line using the RTU enzymatic assay (Biomerieux). The column was calibrated using human lipoproteins and the various peaks in cholesterol profiles are designated VLDL, LDL and HDL for simplicity.
Cholesterol-fed animals were treated for 3 days with Example 1 at 1 and 20 mg/kg. […] In another experiment, lipoproteins were separated by gel filtration and cholesterol content was quantified on-line. As shown in FIG. 7 Example 1 at […] strongly reduces atherogenic particles: 79% reduction of VLDL cholesterol and 60% reduction of LDL-cholesterol.

With `CCOc1cc(CC)ccc1C1CCN(CCCCNC(=O)c2ccc(NC(=O)c3ccc(Cl)cc3)cc2)CC1` [Example 1, 4-(4-Chloro-benzoylamino)-N-{4-[4-(2-ethoxy-4-ethyl-phenyl)-piperidin-1-yl]-butyl}-benzamide] the melting point was 250 °C, the “amount of SREBP-2 precursor form in the membrane” value ([1]; HepG2 transfected with pTK-HSV-BP2, FIG. 4) was “reduces the amount of SREBP-2 precursor form present in the membrane” and the “amount of mature SREBP-2 in the nucleus” value ([1]; HepG2 transfected with pTK-HSV-BP2, nuclear extract, FIG. 4) was “strongly increases the amount of mature SREBP-2 in the nucleus”. The “LDL-receptor promoter activity on co-treatment with 25OH-cholesterol” value ([2]; 1 μM with 25OH-cholesterol 0.2 or 1 μM, 28 hours, HepG2, FIG. 2) was “can at least partially antagonise the effects of 25OH-cholesterol on SCAP”, the “LDL-receptor promoter activity (luciferase/renila ratio)” value ([2]; 1 μM, 28 hours, HepG2, FIG. 2) was “acts as a transcriptional activators” and the “response of minimal adenovirus Major Late promoter vector (p-MLP)” value ([2]; 1 μM, HepG2, FIG. 3C) was “fails to respond”. For the same compound, the “response of p-MLP vector with 4 copies of SRE” value ([2]; 1 μM, HepG2, FIG. 3C) was “sufficient to confer the responsiveness”, the “reporter expression from shortened LDL-receptor promoter constructs” value ([2]; 1 μM, HepG2, p-149 to p-31 constructs, FIG. 3B left) was “promote expression only for vectors possessing the SRE sequence” and the “increase of cholesterol contained in HDL particles” value [3] was 25%. The “reduction of LDL-cholesterol” value [3] was 60% and the “reduction of VLDL cholesterol” value [3] was 79%.
